Among the data in US8338441B2, “Inhibitors of human immunodeficiency virus replication” (priority 2009, dated 2012) are EC50 values, retold here.

As a reminder, the EC50 is the midpoint of the concentration-response curve.

Each structure is given as a SMILES string.

The test system of this test is HIV-1 NL4.3 strain. The test can be described thus: C8166 HIV-1 Luciferase Assay (EC50). The format is cell-based. As to conditions: Human immunodeficiency virus 1, C8166, 72 h, read-out: Antiviral potency EC50. The text has this:
C8166 HIV-1 Luciferase Assay (EC50)
C8166 cells are derived from a human T-lymphotrophic virus type 1 immortalized but nonexpressing line of cord blood lymphocytes (obtained from J. Sullivan and originally produced in the laboratory of R. Gallo, Virology 1983; 129: 51-64) and are highly permissive to HIV-1 infection. The pGL3 Basic LTR/TAR plasmid is made by introducing the HIV-1 HxB2 LTR sequence from nucleotide −138 to +80 (Sca1-HindIII) upstream of the luciferase gene in the pGL3 Basic Vector (a promoterless luciferase expression vector from Promega catalogue # E1751) with the gene for blasticidine resistance cloned in. The reporter cells are made by electroporating C8166 cells with pGL3 Basic LTR/TAR and selecting positive clones with blasticidine. Clone C8166-LTRIuc #A8-F5-G7 is selected by 3 consecutive rounds of limiting dilution under blasticidine selection. Cultures are maintained in complete media (consisting of: Roswell Park Memorial Institute medium (RPMI) 1640+10% FBS+10^−5 M β-mercaptoethanol+10 μg/ml gentamycin) with 5 μg/ml blasticidine, however, blasticidine selection is removed from the cells before performing the viral replication assay.
Luciferase Assay Protocol
Serial dilutions of HIV-1 inhibitor compounds are prepared in complete media from 10 mM DMSO stock solutions. Eleven serial dilutions of 2.5× are made at 8× desired final concentration in a 1 mL deep well titer plate (96 wells). The 12th well contains complete media with no inhibitor and serves as the positive control. All samples contain the same concentration of DMSO (≦0.1% DMSO). A 25 μL aliquot of inhibitor is added, to triplicate wells, of a 96 well tissue culture treated clear view black microtiter plate (Corning Costar catalogue # 3904). The total volume per well is 200 μL of media containing cells and inhibitor. The last row is reserved for uninfected C8166 LTRluc cells to serve as the background blank control and the first row is media alone.
C8166 LTRluc cells are counted and placed in a minimal volume of complete RPMI 1640 in a tissue culture flask (ex. 30×10^6 cells in 10 mL media/25 cm^2 flask). Cells are infected with HIV-1 or virus with variant integrase generated as described below at a […] (moi) of 0.005. Cells are incubated for 1.5 hours at 37° C. on a rotating rack in a 5% CO2 incubator and re-suspended in complete RPMI to give a final concentration of 25,000-cells/175 μL. 175 μL of cell mix is added to wells of a 96 well microtiter plate containing 25 μL 8× inhibitors. 25,000 uninfected C8166-LTRluc cells/well in 200 μL complete RPMI are added to the last row for background control. Cells are incubated at 37° C. in 5% CO2 incubator for 3 days.
50 μL Steady Glo (luciferase substrate T1/2=5 hours Promega catalogue # E2520) is added to each well of the 96 well plate. The relative light units (RLU) of luciferase is determined using the LUMIstar Galaxy luminometer (BMG LabTechnologies). Plates are read from the bottom for 2 seconds per well with a gain of 240.
The level of inhibition (% inhibition) of each well containing inhibitor is calculated as follows: […]
The calculated % inhibition values are used to determine EC50, slope factor (n) and maximum inhibition (Imax) by the non-linear regression routine NLIN procedure of SAS using the following equation: […]
`Cc1nc(C(=O)N[C@H]2CC[C@H](C)CC2)c(C)c(-c2cccc(F)c2Cl)c1[C@H](OC(C)(C)C)C(=O)O` [compound 1454]: the concentration giving a half-maximal response (EC50) was determined as 0.0037 µM.
With `Cc1nc(C(=O)NCCc2ccccc2)c(C)c(-c2ccc(Cl)cc2)c1[C@H](OC(C)(C)C)C(=O)O` [compound 1146], the EC50 turned out to be 0.017 µM.
As for `Cc1nc(C(=O)NC2Cc3ccccc3C2)c(C)c(-c2ccc(Cl)cc2)c1[C@H](OC(C)(C)C)C(=O)O` [compound 1145], the EC50 was 0.035 µM.
In the case of `COc1cc(C(=O)Nc2nc(C)c([C@H](OC(C)(C)C)C(=O)O)c(-c3ccc(Cl)cc3F)c2C)nc2ccccc12` [compound 1453], the EC50 amounted to 0.0021 µM.
As to `COc1nc(C)ccc1C(=O)Nc1nc(C)c([C@H](OC(C)(C)C)C(=O)O)c(-c2ccc(Cl)cc2)c1C` [compound 1467], the EC50 amounted to 0.0043 µM.
Regarding `Cc1nc(C(=O)Nc2nnc(C3CC3)s2)c(C)c(-c2ccc(Cl)cc2)c1[C@H](OC(C)(C)C)C(=O)O` [compound 1316], the EC50 was 0.047 µM.
In the case of `Cc1nc(C(=O)Nc2nc3c(s2)CCC3)c(C)c(-c2ccc(Cl)cc2)c1[C@H](OC(C)(C)C)C(=O)O` [compound 1276], the EC50 was found to be 0.068 µM.
Take `Cc1ccc(NC(=O)c2nc(C)c([C@H](OC(C)(C)C)C(=O)O)c(-c3ccc(Cl)cc3)c2C)cc1` [compound 1167]: the EC50 worked out at 0.0093 µM.
In the case of `Cc1nc(C(=O)NC2CCC3(CC2)CC3)c(C)c(-c2ccc(Br)cc2)c1[C@H](OC(C)(C)C)C(=O)O` [compound 1458] it was 0.0069 µM; in that of `Cc1nc(C(=O)N[C@@H](C)C2CCCCC2)c(C)c(-c2ccc(Cl)cc2)c1[C@H](OC(C)(C)C)C(=O)O` [compound 1152], 0.015 µM.
Take `Cc1nc(NC(=O)C(C)(C)C)c(C)c(-c2ccc(Cl)cc2)c1[C@H](OC(C)(C)C)C(=O)O` [compound 1202]: the EC50 worked out at 0.031 µM.
Turning to `Cc1nc(C(=O)NCc2ccnc3ccccc23)c(C)c(-c2ccc(Cl)cc2)c1[C@H](OC(C)(C)C)C(=O)O` [compound 1442], the EC50 turned out to be 0.016 µM.
With `Cc1nc(-c2cn3cc(Cl)ccc3n2)c(C)c(-c2ccc(Cl)cc2)c1[C@H](OC(C)(C)C)C(=O)O` [compound 1438], the EC50 turned out to be 0.00094 µM.
With `Cc1nc(-c2nc3ccc(Cl)cc3n2C)c(C)c(-c2ccc(Cl)cc2)c1[C@H](OC(C)(C)C)C(=O)O` [compound 1437] the figure was 0.00075 µM.
`Cc1noc(C)c1-c1ccc(-c2nc(C)c([C@H](OC(C)(C)C)C(=O)O)c(-c3ccc(Cl)cc3)c2C#N)cc1` [compound 2005]: the EC50 worked out at 0.019 µM.
In the case of `Cc1nc(-c2nc3ccccc3n2C)c(C)c(-c2ccc(Br)cc2)c1[C@H](OC(C)(C)C)C(=O)O` [compound 1448] it was 0.0014 µM.
In the case of `Cc1nc(C(=O)NC2CCC3(CC2)CC3)c(C)c(-c2ccc(Cl)cc2)c1[C@H](OC(C)(C)C)C(=O)O` [compound 1444] it was 0.0092 µM; in that of `COc1cc2nc(-c3nc(C)c([C@H](OC(C)(C)C)C(=O)O)c(-c4ccc(Cl)cc4)c3C)n(C)c2cc1Cl` [compound 1441], 0.0049 µM.
Regarding `Cc1nc(-c2nc3cc(Cl)ccc3[nH]2)c(C)c(-c2ccc(Cl)cc2F)c1[C@H](OC(C)(C)C)C(=O)O` [compound 1445], the EC50 came out at 0.0019 µM.
For the molecule `COC(=O)c1cnn2c(C)c([C@H](OC(C)(C)C)C(=O)O)c(-c3ccc4c(c3)CCCO4)c(C)c12` [compound 6001], the EC50 was found to be 0.089 µM.
On to `CCCn1cc(-c2cccc(-c3nc(C)c([C@H](OC(C)(C)C)C(=O)O)c(-c4ccc5c(c4)CCCO5)c3C)c2)cn1` [compound 1011], for which the EC50 is 0.059 µM.
On to `Cc1nc(C(=O)NCC2CCCC2)c(C)c(-c2ccc3c(c2)NCCO3)c1[C@H](OC(C)(C)C)C(=O)O` [compound 1293], for which the EC50 worked out at 0.024 µM.
On to `Cc1nc(C(=O)NCC2CCC2)c(C)c(-c2ccc(Cl)cc2)c1[C@H](OC(C)(C)C)C(=O)O` [compound 1307], for which the EC50 amounted to 0.017 µM.
In the case of `CCC(C)(C)O[C@H](C(=O)O)c1c(C)nc(C(=O)N[C@H]2CC[C@H](C)CC2)c(C)c1-c1ccc(Cl)cc1` [compound 3005], the EC50 came to 0.0093 µM.
As to `Cc1nc2ccc(NC(=O)c3nc(C)c([C@H](OC(C)(C)C)C(=O)O)c(-c4ccc(Cl)cc4)c3C)cc2s1` [compound 1311], the concentration giving a half-maximal response (EC50) stood at 0.026 µM.
As for `Cc1nc(-c2cccc(Br)c2)c(C)c(-c2ccc3c(c2)CCCO3)c1[C@H](OC(C)(C)C)C(=O)O` [compound 1005], the EC50 was 0.019 µM.
Consider `Cc1nc(C(=O)Nc2ccc(C(N)=O)nc2)c(C)c(-c2ccc(Cl)cc2)c1[C@H](OC(C)(C)C)C(=O)O` [compound 1283], for which the EC50 is 0.14 µM.
With `Cc1nc(-c2ccc3scnc3c2)c(C)c(-c2ccc(Cl)cc2)c1[C@H](OC(C)(C)C)C(=O)O` [compound 1141], the EC50 came to 0.026 µM.
For `Cc1nc(-c2cccc(-c3cncnc3)c2)c(C)c(-c2ccc3c(c2)CCCO3)c1[C@H](OC(C)(C)C)C(=O)O` [compound 1017], the EC50 amounted to 0.021 µM.
Regarding `Cc1nc(-c2cccc(-c3ccnnc3)c2)c(C)c(-c2ccc3c(c2)CCCO3)c1[C@H](OC(C)(C)C)C(=O)O` [compound 1020], the EC50 was 0.049 µM.
On to `Cc1nc(C(=O)NCC2CCCC2)c(C)c(-c2ccc(Cl)cc2)c1[C@H](OC(C)(C)C)C(=O)O` [compound 1208], for which the EC50 is 0.0089 µM.
For `Cc1n[nH]c(C)c1-c1cccc(-c2nc(C)c([C@H](OC(C)(C)C)C(=O)O)c(-c3ccc4c(c3)CCCO4)c2C)c1` [compound 1018], the EC50 is 0.18 µM.
On to `Cc1nc(-c2ccc(OC(F)(F)F)cc2)c(C)c(-c2ccc(Cl)cc2)c1[C@H](OC(C)(C)C)C(=O)O` [compound 1132], for which the EC50 was 0.0094 µM.
